Laboratory results reported in US6737383B1, “Herbicidal oxadiazolidines” (priority 1999, dated 2004).

How the values were obtained:
morningglory = test: Test B pre/postemergence morningglory; assay type: in vivo, Ipomoea hederacea
Summary of the method: (§1)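 Test chemicals in a non-phytotoxic solvent mixture with surfactant were sprayed preemergence onto planted seeds and postemergence onto plants 2 to 18 cm tall (1- to 4-leaf stage). After twelve to sixteen days in a greenhouse, injury was visually rated against untreated controls from 0 (no effect) to 10 (complete control).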

pigweed = test: Test B pre/postemergence pigweed; assay type: in vivo, Amaranthus retroflexus
Summary of the method: as §1

wild oat [1] = test: Test B pre/postemergence wild oat; assay type: in vivo, Avena fatua
Summary of the method: as §1

winter wheat [2] = test: Test E winter wheat; assay type: in vivo, Triticum aestivum; details: Postemergence; for Wheat (winter) plant response rating: Rate 250 g/ha
Summary of the method: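 Compound formulated with surfactant in a non-phytotoxic solvent (postemergence: young 1- to 4-leaf plants); held in greenhouse approx. 21–28 days; visual assessment against untreated plants.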

blackgrass = test: Test E blackgrass; assay type: in vivo, Alopecurus myosuroides; details: Preemergence
green foxtail = test: Test E green foxtail; assay type: in vivo, Setaria viridis; details: Preemergence; for Green foxtail plant response rating (0 to 100 scale): Rate 250 g/ha
Italian ryegrass = test: Test E Italian ryegrass; assay type: in vivo, Lolium multiflorum; details: Preemergence; for I. Ryegrass plant response rating (0 to 100 scale): Rate 250 g/ha
winter wheat [3] = test: Test E winter wheat; assay type: in vivo, Triticum aestivum; details: Preemergence; for Wheat (winter) plant response rating (0 to 100 scale): Rate 250 g/ha
wild oat [4] = test: Test E wild oat; assay type: in vivo, Avena fatua; details: Preemergence; for Wild oat plant response rating (0 to 100 scale): Rate 250 g/ha
winter barley = test: Test E winter barley; assay type: in vivo, Hordeum vulgare; details: Preemergence; for Barley (winter) plant response rating (0 to 100 scale): Rate 250 g/ha
[5] = Preemergence, Rate 62 g/ha, scale of 0 to 10 where 0 is no effect and 10 is complete control
[6] = Preemergence, Rate 250 g/ha, scale of 0 to 10 where 0 is no effect and 10 is complete control
[7] = Preemergence, Rate 500 g/ha, scale of 0 to 10 where 0 is no effect and 10 is complete control
[8] = Rate 62 g/ha, Postemergence, scale 0 to 10 (0 no effect, 10 complete control)
[9] = Rate 125 g/ha, Postemergence, scale of 0 to 10 where 0 is no effect and 10 is complete control
[10] = Rate 125 g/ha, Preemergence, scale of 0 to 10 where 0 is no effect and 10 is complete control
[11] = Rate 250 g/ha, Postemergence, scale of 0 to 10 where 0 is no effect and 10 is complete control
[12] = 0 to 100 scale where 0 is no effect and 100 is complete control
[13] = Rate 500 g/ha, 0 to 100 scale, 0 is no effect, 100 is complete control
[14] = Rate 125 g/ha, 0 to 100 scale (0 no effect, 100 complete control)
[15] = Rate 500 g/ha, 0 to 100 scale (0 no effect, 100 complete control)
[16] = Rate 500 g/ha, Postemergence, scale 0 to 10, 0 no effect, 10 complete control
[17] = Rate 1000 g/ha, 0 to 100 scale, 0 no effect, 100 complete control

Compound: COCn1c(=O)on(C(=O)N(c2ccc(F)cc2)C(C)C)c1=O [Compound 293]
- Morningglory plant response rating (morningglory; [5]): 0
- Morningglory plant response rating (morningglory; [6]): 0
- Plant response rating, Morningglory (morningglory; [7]): 4
- Morningglory plant response rating (morningglory; [8]): 1
- Morningglory plant response rating (morningglory; [9]): 5
- Morningglory plant response rating (morningglory; [10]): 0
- Plant response rating, Morningglory (morningglory; [11]): 5
- Redroot pigweed plant response rating (pigweed; [5]): 6
- Redroot pigweed plant response rating (pigweed; [6]): 10
- Plant response rating, Redroot pigweed (pigweed; [7]): 10
- Redroot pigweed plant response rating (pigweed; [8]): 0
- Redroot pigweed plant response rating (pigweed; [9]): 2
- Redroot pigweed plant response rating (pigweed; [10]): 8
- Plant response rating, Redroot pigweed (pigweed; [11]): 2
- Wild oats plant response rating (wild oat [1]; [5]): 1
- Wild oats plant response rating (wild oat [1]; [6]): 8
- Plant response rating, Wild oats (wild oat [1]; [7]): 9
- Wild oats plant response rating (wild oat [1]; [8]): 0
- Wild oats plant response rating (wild oat [1]; [9]): 0
- Plant response rating, Wild oats (wild oat [1]; [11]): 3
- Plant response rating, Wheat (winter) (winter wheat [2]; Rate 125 g/ha, 0 to 100 scale, 0 is no effect, 100 is complete control): 50
- Wheat (winter) plant response rating (winter wheat [2]; [12]): 30
- Plant response rating, Wheat (winter) (winter wheat [2]; [13]): 50
- Plant response rating, Blackgrass (blackgrass; [14]): 40
- Plant response rating, Blackgrass (blackgrass; [15]): 50
- Plant response rating, Green foxtail (green foxtail; [14]): 55
- Green foxtail plant response rating (0 to 100 scale) (green foxtail): 70
- Plant response rating, Green foxtail (green foxtail; [15]): 60
- Plant response rating, I. Ryegrass (Italian ryegrass; [14]): 30
- I. Ryegrass plant response rating (0 to 100 scale) (Italian ryegrass): 50
- Plant response rating, I. Ryegrass (Italian ryegrass; [15]): 50
- Plant response rating, Wheat (winter) (winter wheat [3]; [14]): 40
- Wheat (winter) plant response rating (0 to 100 scale) (winter wheat [3]): 50
- Plant response rating, Wheat (winter) (winter wheat [3]; [15]): 55
- Plant response rating, Wild oat (wild oat [4]; [14]): 0
- Wild oat plant response rating (0 to 100 scale) (wild oat [4]): 10
- Plant response rating, Wild oat (wild oat [4]; [15]): 50
- Plant response rating, Barley (winter) (winter barley; [14]): 40
- Barley (winter) plant response rating (0 to 100 scale) (winter barley): 40
- Plant response rating, Barley (winter) (winter barley; [15]): 50

Compound: CC(C)N(C(=O)n1oc(=O)n(C2CCCC2)c1=O)c1ccccc1 [Compound 283]
- Morningglory plant response rating (morningglory; [5]): 0
- Morningglory plant response rating (morningglory; [6]): 0
- Plant response rating, Morningglory (morningglory; [7]): 0
- Morningglory plant response rating (morningglory; [8]): 8
- Morningglory plant response rating (morningglory; [9]): 9
- Morningglory plant response rating (morningglory; [10]): 0
- Plant response rating, Morningglory (morningglory; [11]): 9
- Morningglory plant response rating (morningglory; [16]): 10
- Redroot pigweed plant response rating (pigweed; [5]): 2
- Redroot pigweed plant response rating (pigweed; [6]): 10
- Plant response rating, Redroot pigweed (pigweed; [7]): 10
- Redroot pigweed plant response rating (pigweed; [8]): 4
- Redroot pigweed plant response rating (pigweed; [9]): 4
- Redroot pigweed plant response rating (pigweed; [10]): 6
- Plant response rating, Redroot pigweed (pigweed; [11]): 5
- Redroot pigweed plant response rating (pigweed; [16]): 7
- Wild oats plant response rating (wild oat [1]; [5]): 0
- Wild oats plant response rating (wild oat [1]; [6]): 4
- Plant response rating, Wild oats (wild oat [1]; [7]): 7
- Wild oats plant response rating (wild oat [1]; [8]): 0
- Wild oats plant response rating (wild oat [1]; [9]): 0
- Plant response rating, Wild oats (wild oat [1]; [11]): 0
- Wild oats plant response rating (wild oat [1]; [16]): 0
- Plant response rating, Wheat (winter) (winter wheat [2]; Rate 1000 g/ha, 0 to 100 scale where 0 is no effect and 100 is complete control): 75
- Wheat (winter) plant response rating (winter wheat [2]; [12]): 60
- Plant response rating, Wheat (winter) (winter wheat [2]; [13]): 50
- Blackgrass plant response rating (0 to 100 scale) (blackgrass; Rate 250 g/ha): 50
- Plant response rating, Blackgrass (blackgrass; [15]): 60
- Plant response rating, Blackgrass (blackgrass; [17]): 85
- Green foxtail plant response rating (0 to 100 scale) (green foxtail): 100
- Plant response rating, Green foxtail (green foxtail; [15]): 100
- Plant response rating, Green foxtail (green foxtail; [17]): 100
- I. Ryegrass plant response rating (0 to 100 scale) (Italian ryegrass): 70
- Plant response rating, I. Ryegrass (Italian ryegrass; [15]): 90
- Plant response rating, I. Ryegrass (Italian ryegrass; [17]): 98
- Wheat (winter) plant response rating (0 to 100 scale) (winter wheat [3]): 50
- Plant response rating, Wheat (winter) (winter wheat [3]; [15]): 65
- Plant response rating, Wheat (winter) (winter wheat [3]; [17]): 80
- Wild oat plant response rating (0 to 100 scale) (wild oat [4]): 65
- Plant response rating, Wild oat (wild oat [4]; [15]): 50
- Plant response rating, Wild oat (wild oat [4]; [17]): 70
- Barley (winter) plant response rating (0 to 100 scale) (winter barley): 60
- Plant response rating, Barley (winter) (winter barley; [15]): 75
- Plant response rating, Barley (winter) (winter barley; [17]): 80
